Laboratory results reported in patent US11439148B2, “Pyrimidine derivatives” (SYNGENTA PARTICIPATIONS AG, priority 2017, dated 2022).

Experiments:
Format in all cases: in vivo
[1] = test system: Brachiaria platyphylla (BRAPP); test: Adjuvant efficacy with mesotrione, glasshouse spray test; conditions: mesotrione SC, mean over 30 and 60 g/ha and 3 replicates; adjuvant 0.2% v/v (none in No Adjuvant rows); % leaf area killed, 21 days after application; Tests 1-3 separate runs
Method: (§1) The efficacy of adjuvants 1-12 as an adjuvant for the herbicide mesotrione was tested in a glasshouse against four weed species sown into standard soil in pots and cultivated under controlled conditions in a glasshouse (at 24/18° C. day/night; 16 hours light; 65% humidity). Mesotrione was added to the spray tank as a standard SC (suspension concentrate) formulation.
(§2) The spray tests were also carried out using mesotrione in conjunction with adjuvants 1-12. The adjuvants were added to the spray solution at a rate of 0.2% v/v unless otherwise stated. All spray solutions also contained 10% w/w of iso-Propanol. The weed species and their BBCH growth stage at spraying were Brachiaria platyphylla (BRAPP; growth stage 13-14) or Brachiaria plantaginea (BRAPL; growth stage 13-14), Commelina benghalensis (COMBE; growth stage 13), Digitaria sanguinalis (DIGSA; growth stage 14), and Polygonum convolvulus (POLCO; growth stage 13-14). Each spray test was replicated three times.
(§3) The test plants were then grown in a glasshouse under controlled conditions (at 24/18° C. day/night; 16 hours light; 65% humidity) and watered twice a day. The efficacy of the herbicide was assessed visually and expressed as a percentage of the leaf area killed. Samples were assessed at a time period of 21 days following application. The results shown in Table 3 below are mean averages over the two rates of mesotrione and the three replicates.

[2] = test system: Digitaria sanguinalis (DIGSA); test: Adjuvant efficacy with nicosulfuron, glasshouse spray test; conditions: nicosulfuron WG, mean over 15 and 60 g/ha and 3 replicates; adjuvant 0.2% v/v (none in No Adjuvant rows); % leaf area killed, 21 days after application; Tests 1-4 separate runs
Method: (§4) The efficacy of adjuvants 1-12 as adjuvants for the herbicide nicosulfuron were tested in a glasshouse against four weed species sown into standard soil in pots and cultivated under controlled conditions in a glasshouse (at 24/18° C. day/night; 16 hours light; 65% humidity). Nicosulfuron was added to the spray tank as a standard WG (water dispersible granule) formulation.
(§5) The spray tests were also carried out using nicosulfuron in conjunction with adjuvants 1-12. The adjuvant was added to the spray solution at a rate of 0.2% v/v. All spray solutions also contained 12.5% v/v of iso-Propanol. The weed species and their BBCH growth stage at spraying were Abutilon theophrasti (ABUTH; growth stage 13), Chenopodium album (CHEAL; growth stage 13-14), Digitaria sanguinalis (DIGSA; growth stage 11), and Setaria viridis (SETVI; growth stage 13). Each spray test was replicated three times. The test plants were then grown in a glasshouse under controlled conditions (at 24/18° C. day/night; 16 hours light; 65% humidity) and watered twice a day. The efficacy of the herbicide was assessed visually and expressed as a percentage of the leaf area killed. Samples were assessed at a time period of 21 days following application. The results shown in Table 1 below are mean averages over the two rates of nicosulfuron, and the three replicates.

[3] = test system: Chenopodium album (CHEAL); test: as above; conditions: nicosulfuron WG, mean over 15 and 60 g/ha and 3 replicates; adjuvant 0.2% v/v (none in No Adjuvant rows); % leaf area killed, 21 days after application; Tests 1-4 separate runs
Method: as §4, §5

[4] = test system: Abutilon theophrasti (ABUTH); test: as above; conditions: nicosulfuron WG, mean over 15 and 60 g/ha and 3 replicates; adjuvant 0.2% v/v (none in No Adjuvant rows); % leaf area killed, 21 days after application; Tests 1-4 separate runs
Method: as §4, §5

[5] = test system: Setaria viridis (SETVI); test: as above; conditions: nicosulfuron WG, mean over 15 and 60 g/ha and 3 replicates; adjuvant 0.2% v/v (none in No Adjuvant rows); % leaf area killed, 21 days after application; Tests 1-4 separate runs
Method: as §4, §5

[6] = test system: Avena fatua (AVEFA); test: Adjuvant efficacy with pinoxaden, glasshouse spray test; conditions: pinoxaden EC, mean over 7.5 and 15 g/ha and 3 replicates; adjuvant 0.2% v/v (none in No Adjuvant rows); % leaf area killed, 21 days after application; Tests 1-4 separate runs
Method: (§6) The efficacy of adjuvants 1-12 as adjuvants for the herbicide pinoxaden were tested in a glasshouse against four weed species, sown into standard soil in pots and cultivated under controlled conditions in a glasshouse (at 20/16° C. day/night; 16 hours light; 65% humidity). Pinoxaden was added to the spray tank as a standard EC (emulsifiable concentrate) formulation.
(§7) The spray tests were also carried out using pinoxaden in conjunction with adjuvants 1-12. The adjuvants were added to the spray solution at a rate of 0.2% v/v unless otherwise stated. All spray solutions also contained 10% w/w of iso-Propanol. The weed species and their BBCH growth stage at spraying were Avena fatua (AVEFA; growth stage 12), Lolium perenne (LOLPE; growth stage 13), Alopecurus myosuroides (ALOMY; growth stage 13), and Setaria viridis (SETVI; growth stage 13-14). Each spray test was replicated three times. The test plants were then grown in a glasshouse under controlled conditions (at 20/16° C. day/night; 16 hours light; 65% humidity) and watered twice a day. The efficacy of the herbicide was assessed visually and expressed as a percentage of the leaf area killed. Samples were assessed at a time period of 21 days following application. The results shown in Table 4 below are mean averages over the two rates of pinoxaden, and the three replicates.

[7] = test system: Alopecurus myosuroides (ALOMY); test: as above; conditions: pinoxaden EC, mean over 7.5 and 15 g/ha and 3 replicates; adjuvant 0.2% v/v (none in No Adjuvant rows); % leaf area killed, 21 days after application; Tests 1-4 separate runs
Method: as §6, §7

[8] = test system: Lolium perenne (LOLPE); test: as above; conditions: pinoxaden EC, mean over 7.5 and 15 g/ha and 3 replicates; adjuvant 0.2% v/v (none in No Adjuvant rows); % leaf area killed, 21 days after application; Tests 1-4 separate runs
Method: as §6, §7

[9] = test system: Setaria viridis (SETVI); test: as above; conditions: pinoxaden EC, mean over 7.5 and 15 g/ha and 3 replicates; adjuvant 0.2% v/v (none in No Adjuvant rows); % leaf area killed, 21 days after application; Tests 1-4 separate runs
Method: as §6, §7

[10] = test system: weed species BRAPP, COMBE, DIGSA, POLCO; test: Adjuvant efficacy with mesotrione, glasshouse spray test, average over all species (BRAPP set); conditions: mesotrione SC, mean over 30 and 60 g/ha; adjuvant 0.2% v/v (none in No Adjuvant rows); 21 days; Tests 1-3, species set with BRAPP (COMBE only in Test 2)
Method: as §1, §2, §3

| SMILES | Mean % Herbicidal Activity BRAPP [1] | Mean % Herbicidal Activity DIGSA [2] | Mean % Herbicidal Activity CHEAL [3] | Mean % Herbicidal Activity ABUTH [4] | Mean % Herbicidal Activity SETVI [5] | Mean % Herbicidal Activity AVEFA [6] | Mean % Herbicidal Activity ALOMY [7] | Mean % Herbicidal Activity LOLPE [8] | Mean % Herbicidal Activity SETVI [9] | Mean % Herbicidal Activity Average over all Species [10] |
| --- | --- | --- | --- | --- | --- | --- | --- | --- | --- | --- |
| CCCCCCOc1cc(OCCOCCOC)ncn1 [Adjuvant 1] | 53% | 88% | 84% | 64% | 93% | 78% | 20% | 41% | 82% | 72% |
| CCCCCCOc1cc(OCCOCCOCCOCCOCCOCCOCCOCCOCCOCCOC)ncn1 [Adjuvant 2] | 52% | 89% | 80% | 61% | 97% | 56% | 16% | 28% | 87% | 75% |
| CCCCCCOc1cc(OCCOCCOCCOCCOCCOCCOCCOCCOCCOCCOCCOCCOCCOCCOCCOCCOCCOCCOCCOCCOC)ncn1 [Adjuvant 3] | 38% | 88% | 76% | 49% | 93% | 52% | 15% | 22% | 88% | 71% |
| CCCCCCCCCOc1cc(OCCOCCOCCOCCOCCOCCOCCOC)ncn1 [Adjuvant 4] | 43% | 70% | 78% | 48% | 94% | 78% | 18% | 30% | 82% | 73% |
| CCCCCCCCCOc1cc(OCCOCCOCCOCCOCCOCCOCCOCCOCCOCCOC)ncn1 [Adjuvant 5] | 48% | 49% | 63% | 49% | 91% | 69% | 10% | 21% | 63% | 71% |
| CCCCCCCCC=CCCCCCCCCOc1cc(OCCOCCOC)ncn1 [Adjuvant 9] | 69% | 88% | 82% | 57% | 95% | 83% | 17% | 40% | 91% | 81% |
| CCCCCCCCC=CCCCCCCCCOc1cc(OCCOCCOCCOCCOCCOCCOCCOCCOCCOCCOCCOCCOCCOCCOCCOCCOCCOCCOCCOCCOC)ncn1 [Adjuvant 11] | 58% | 88% | 82% | 64% | 94% | 41% | 11% | 15% | 84% | 78% |
| CCCCCCCCCCCCOc1cc(OCC(C)OCC(C)OCC(C)OC)ncn1 (centres unmarked) [Adjuvant 12] | 69% | 93% | 83% | 66% | 96% | 87% | 23% | 76% | 94% | 84% |
